# Laboratory results as given in ChEMBL document CHEMBL1201862, “PubChem BioAssay data set” (2004).
#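 Tested at 5 concentrations; 48 h exposure; 96-well plates; endpoints linearly interpolated, else capped at highest concentration. Here, GI50 denotes the concentration required for 50% inhibition of growth.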 The source made the active and inactive calls. No stated cut-off is given here; in the data, active = GI50 up to about 1.1 µM and inactive = higher.
# Experiments:
# Test in all cases: NCI tumour cell line growth inhibition, 48 h
# XF498 = system: XF498
# KM-20L2 = system: KM-20L2
# M19-MEL = system: M19-MEL
# DLD-1 = system: DLD-1
# RXF 631 = system: RXF 631
# DMS-273 = system: DMS-273
# HOP-18 = system: HOP-18
# LXFL 529 = system: LXFL 529
# DMS-114 = system: DMS-114
SMILES,GI50 (XF498),GI50 (KM-20L2),GI50 (M19-MEL),GI50 (DLD-1),GI50 (RXF 631),GI50 (DMS-273),GI50 (HOP-18),GI50 (LXFL 529),GI50 (DMS-114)
CCCCCCCCCCCCCCCC(=O)OCC(C[As](=O)(O)O)OC(=O)CCCCCCCCCCCCCCC (stereo unspecified),27 µM (inactive),> 100 µM (inactive),> 100 µM (inactive),> 100 µM (inactive),54.7 µM (inactive),> 100 µM (inactive),> 100 µM (inactive),> 100 µM (inactive),70.6 µM (inactive)
Cc1c(Cl)ccc2c1NC(=O)C2(O)CC(=O)c1ccc(Cl)cc1Cl (stereo unspecified),16.7 µM (inactive),> 50 µM (inactive),> 50 µM (inactive),–,31 µM (inactive),> 50 µM (inactive),–,27.8 µM (inactive),38.5 µM (inactive)
Cc1[nH]c2ccccc2c1C1Cc2ccccc2N1C(=O)C#Cc1ccc([N+](=O)[O-])cc1 (stereo unspecified),> 100 µM (inactive),> 100 µM (inactive),–,> 100 µM (inactive),–,–,> 100 µM (inactive),> 100 µM (inactive),> 100 µM (inactive)
CC(C)N(C(=O)C12C3C4C5(C#N)C3C1(C#N)C5C42I)C(C)C (stereo unspecified),> 100 µM (inactive),> 100 µM (inactive),97.1 µM (inactive),> 42.6 µM (inactive),> 100 µM (inactive),> 43.4 µM (inactive),> 100 µM (inactive),> 100 µM (inactive),> 44.4 µM (inactive)
COc1ccccc1NC(=O)C1=C(C)NC(C)=C(C(=O)Nc2ccccc2OC)C1c1ccc(C(C)C)cc1,18.6 µM (inactive),48.4 µM (inactive),> 100 µM (inactive),> 100 µM (inactive),> 100 µM (inactive),59.7 µM (inactive),> 100 µM (inactive),> 100 µM (inactive),–
COc1ccc(/C=N/NS(=O)(=O)c2ccccc2)cc1,> 100 µM (inactive),> 100 µM (inactive),> 100 µM (inactive),> 100 µM (inactive),–,> 100 µM (inactive),> 100 µM (inactive),> 100 µM (inactive),63.1 µM (inactive)
CCN(CC)c1ccc2c(c1)Nc1cc(=C(C#N)C#N)c3ccccc3c1=N2,> 100 µM (inactive),> 100 µM (inactive),> 100 µM (inactive),> 100 µM (inactive),> 100 µM (inactive),> 100 µM (inactive),> 100 µM (inactive),> 100 µM (inactive),> 100 µM (inactive)
CCN(c1ccc(Br)cc1)c1c(Br)c(=O)nc2ccccn12,> 100 µM (inactive),> 100 µM (inactive),> 100 µM (inactive),> 100 µM (inactive),> 100 µM (inactive),83.2 µM (inactive),–,> 100 µM (inactive),70.6 µM (inactive)
CC[C@@H]1NC(C(=O)OC)Cc2c1[nH]c1ccccc21 (stereo partly specified),–,> 100 µM (inactive),> 100 µM (inactive),> 100 µM (inactive),> 100 µM (inactive),> 100 µM (inactive),> 100 µM (inactive),> 100 µM (inactive),> 100 µM (inactive)
CC(/C=C/C(=O)c1sc(-n2nc(-c3ccccc3)cc2-c2ccccc2)nc1C)=C\c1ccccc1,> 10 µM (inactive),20.7 µM (inactive),75 µM (inactive),29.9 µM (inactive),65.9 µM (inactive),> 10 µM (inactive),> 10 µM (inactive),38.4 µM (inactive),16.9 µM (inactive)
Cc1cc(/N=C2\C=C(Nc3cc(C)on3)C(=O)c3ccccc32)no1,35.6 µM (inactive),43.7 µM (inactive),2.64 µM (inactive),> 100 µM (inactive),28.8 µM (inactive),80.4 µM (inactive),28.4 µM (inactive),> 100 µM (inactive),25.1 µM (inactive)
C=CCONC(=O)c1ccc(Cl)cc1,> 100 µM (inactive),> 100 µM (inactive),> 100 µM (inactive),> 100 µM (inactive),> 100 µM (inactive),–,> 100 µM (inactive),> 100 µM (inactive),> 100 µM (inactive)
CC1OC(OC2CC(O)(C(=O)CO)Cc3c(O)c4c(c(O)c32)C(=O)c2ccccc2C4=O)CC(N)C1O (stereo unspecified),–,< 0.0117 µM (active),< 0.01 µM (active),< 0.01 µM (active),0.0102 µM (active),< 0.01 µM (active),< 0.01 µM (active),< 0.0238 µM (active),< 0.01 µM (active)
CN(C(=O)C12C3(C(=O)C(C)(C)C)C4C5(C#N)C3C1(C(=O)C(C)(C)C)C5C42C(=O)C(C)(C)C)C(C)(C)C (stereo unspecified),10.4 µM (inactive),> 50 µM (inactive),> 50 µM (inactive),35.3 µM (inactive),42.4 µM (inactive),42.8 µM (inactive),–,21.4 µM (inactive),17.7 µM (inactive)
Cc1nc(-n2nc(-c3ccccc3)cc2-c2ccccc2)sc1C(=O)CC(=O)C(=O)Nc1ccc(Cl)c(Cl)c1,–,45.8 µM (inactive),> 100 µM (inactive),34 µM (inactive),> 100 µM (inactive),59.8 µM (inactive),> 100 µM (inactive),45.1 µM (inactive),33.6 µM (inactive)
O=C(NCc1ccccc1)C1C(=O)C(=O)N(Cc2ccccc2)C1=O (stereo unspecified),–,> 100 µM (inactive),> 100 µM (inactive),> 100 µM (inactive),> 100 µM (inactive),> 100 µM (inactive),> 100 µM (inactive),> 100 µM (inactive),–
CN(C)C(=S)/N=c1\sn(C)/c(=N\C(=S)N(C)C)n1C,> 100 µM (inactive),> 100 µM (inactive),25.8 µM (inactive),> 100 µM (inactive),> 100 µM (inactive),36.7 µM (inactive),> 100 µM (inactive),> 100 µM (inactive),–
O=C1c2cc3c(cc2[C@@H]2NC4CCCC14O2)OCO3 (stereo partly specified),> 100 µM (inactive),> 100 µM (inactive),> 100 µM (inactive),> 100 µM (inactive),–,> 100 µM (inactive),–,> 100 µM (inactive),> 100 µM (inactive)
COC(=O)[C@]12CC=C3O[C@@H]4OC5(CCCCC5)O[C@@H]4C3[C@@H]1C(=O)CCC2=O (stereo partly specified),> 100 µM (inactive),> 100 µM (inactive),–,> 100 µM (inactive),> 100 µM (inactive),> 100 µM (inactive),> 100 µM (inactive),> 100 µM (inactive),> 100 µM (inactive)
C=C(CO)CC(O)c1ccccc1 (stereo unspecified),> 100 µM (inactive),> 100 µM (inactive),> 100 µM (inactive),> 100 µM (inactive),> 100 µM (inactive),> 100 µM (inactive),–,> 100 µM (inactive),> 100 µM (inactive)
O=C(c1cc2c(C(F)(F)F)onc2c2ccccc12)C(F)(F)F,–,1.22 µM (inactive),3.1 µM (inactive),0.484 µM (active),2.38 µM (inactive),1.49 µM (inactive),6.47 µM (inactive),0.347 µM (active),2.15 µM (inactive)
c1cc(-c2cn3c(n2)SCC3)ccn1,> 100 µM (inactive),> 100 µM (inactive),> 60 µM (inactive),> 75.7 µM (inactive),–,28.3 µM (inactive),> 100 µM (inactive),> 90.6 µM (inactive),> 55 µM (inactive)
